Test results published in patent US8889156B2, “Calcium-binding agents induce hair growth and/or nail growth” (priority 2009, dated 2014).

Columns and labels:
[1] = Nucleation of hydroxyapatite on tooth enamel (SBFn/SBFg, SEM); design: species or system human; settings: demineralized enamel, 12.5 μM peptide
Protocol: To determine whether applying DSS to various preparations of tissue promoted HA nucleation, that could ultimately lead to tissue remineralization, sagittally sectioned adult human teeth (obtained after extraction during normal clinical practice) were polished using a Streurs grinding wheel, and prepared for nucleation experiments. Half of the sections were demineralized with 35% phosphoric acid for 15 minutes, then rinsed thoroughly with deionized water. The other half were left untreated. All samples were then sonicated for five minutes to remove excess debris left from cutting and grinding and/or demineralization. Samples were treated with 12.5 μM 8DSS dissolved in 50 mM HEPES buffer solution (pH 7.0), buffer solution only, or left untreated. Samples were then immersed into a simulated body fluid (SBFn), meant to accelerate nucleation of hydroxyapatite (HA) crystals, for 4 hours. Following the nucleation step, samples were immersed in a magnesium and bicarbonate free solution (SBFg) in order to allow the nucleated HA crystals to grow. […] Both solutions were adjusted to pH 6.8. Crystals were grown in order to amplify the nucleated crystals for easy visualization by SEM.

[2] = HA binding assay (pulldown of fluorescein-labeled peptides, Langmuir isotherm fit); settings: fit of Langmuir equation
Protocol: Fluorescein-labeled DSS-containing peptides of various lengths were subjected to pulldown assays as follows: Samples containing varying concentrations of fluorescein-labeled peptide (0-100 μM) and a fixed amount (0.3 mg) of HA nanocrystals with a specific surface area of 100 m^2/g (Berkeley Advanced Biomaterials, Berkeley, Calif.) were prepared. Measurements were taken of the absorbance of the labeled peptide at 488 nm (the peak absorbance of the fluorescein label) before and after exposure to the HA. The amount of peptide bound was calculated by comparing the ratio of the final (Af) and initial (Ai) absorbances to the initial concentration (C0) [Cbound=(Af/Ai)C0]. Plots were generated of the amount of peptide bound per meter squared of HA surface area vs. concentration of unbound peptide at equilibrium. The resulting isotherms were fit to the Langmuir isotherm, x/m=(KANmaxCeq)/(1+KACeq), where x/m represents the molar amount of peptide bound per unit of HA surface area, KA is the affinity constant of the peptide for the HA surface (L/Mol), Nmax is the maximum surface concentration (mol/m^2), and Ceq is the molar concentration of unbound peptide at equilibrium (Calis et al. (1995) Pharm Res., 12: 1072-1076).
In order to quantitatively assess the strength of the DSS-HA interaction as well as to determine the roles of peptide length and sequence on binding, fluorescein-labeled, DSS-containing peptides of various lengths were subjected to pulldown assays as described in “Materials and Methods.”
The experimental data were fit to the Langmuir isotherm, which describes the binding of molecules to surfaces with the conditions that (1) all binding sites have the same affinity for the peptide and (2) the peptide will form a monolayer on the surface but cannot accumulate to higher levels (Atkins (1994) Physical chemistry. Freeman, New York). The excellent fit of the Langmuir isotherm to the experimental data validates these conditions, and the constants obtained from this analysis were used for comparisons between peptides. As shown in FIG. 7A and summarized in Table 6, both the binding affinity (KA) and the monolayer concentration (NMax) of the various peptides increased with the number of DSS repeats per peptide. Additionally, several variant peptides were tested (FIGS. 7B, 7C, Table 6): a peptide containing a longer side chain at the first position (4ESS (SEQ ID NO:34)), peptides containing a more sterically hindered hydroxyl group at the second and third positions (4DTT (SEQ ID NO:36), 4NTT (SEQ ID NO:38), 4ETT (SEQ ID NO:37)), peptides lacking a charged group at the first position (4NSS (SEQ ID NO:35), 8ASS (SEQ ID NO:26)), and peptides lacking hydroxyl groups at the second and third positions (DAA-8 (SEQ ID NO:40), 8NAA (SEQ ID NO:41)).

With “DSS DSS DSSDSS DSS DSS DSS DSS (DSSDSSDSSDSSDSSDSSDSSDSS; synthetic calcium-binding peptide 8DSS)” the “crystal growth (nucleation) on enamel” value [1] was “significant crystal growth”, the “Nmax (maximum monolayer surface concentration)” value [2] was 8.2 × 10^−8 ± 6 × 10^−9 mol/m^2 and the “KA (binding affinity for HA)” value ([2]; fluorescein-labeled peptide 0-100 μM, 0.3 mg HA nanocrystals) was 290,000 ± 70,000 M^−1.
